According to PMC7226586 (Journal of Medicinal Chemistry, 2019):
“Also recorded” adds a separate entry of the source.

What was measured:
[1] = biological target: cholesterol-bound CYP46A1 (Homo sapiens, UniProt Q9Y6A2); test: Spectral titrations of cholesterol-bound CYP46A1; assay type: binding; conditions: 20 μM cholesterol; for spectral response fit, cholesterol-bound CYP46A1 / spectral response type, cholesterol-bound CYP46A1: 18 °C
substrate-free CYP46A1 = substrate-free CYP46A1 (Homo sapiens, UniProt Q9Y6A2); test: Spectral titrations of substrate-free CYP46A1; assay type: binding; conditions: for spectral response type, substrate-free CYP46A1: P450 difference spectrum
[2] = biological target: T1, purified recombinant CYP46A1 (Homo sapiens, UniProt Q9Y6A2); test: CYP46A1 enzyme assay; assay type: biochemical; conditions: for shape of concentration dependence curve of CYP46A1 activity / CYP46A1 inhibition at the concentrations tested: 0–100 μM compound; for effect of co-incubation with L-Glu on CYP46A1 activation / maximal activation in the presence of L-Glu (fold): 100 μM L-Glu; for effect of co-incubation with L-Glu on CYP46A1 activation / effect of co-incubation with (S)-EFV on CYP46A1 activation / maximal activation in the presence of L-Glu (fold): 20 μM compound; for CYP46A1 inhibition at the 60–100 μM concentrations: 60–100 μM compound; for effect of co-incubation with (S)-EFV on CYP46A1 activation: 20 μM (S)-EFV
[3] = biological target: CYP46A1 allosteric sites (EFV binding site, Glu binding site) (Homo sapiens, UniProt Q9Y6A2); test: Mapping of the allosteric site; assay type: biochemical; conditions: for allosteric site of binding: from co-incubations and mutants; for P450 activation with replacements within the Glu-binding site: CYP46A1 mutants K358A, F416A and Y427A; for P450 activation with replacements within the Glu-binding site / P450 activation with replacements within the EFV-binding site: 20 μM compound; for P450 activation with replacements within the EFV-binding site: CYP46A1 mutants R415A and F405A
[4] = plasma of EFV-treated subjects; cited from earlier work
[5] = cited from earlier work
[6] = concentrations mimicking the 600 mg/day EFV dose; cited from earlier work
CYP46A1 = CYP46A1 (Homo sapiens, UniProt Q9Y6A2); test: Stopped-flow kinetics of compound binding to and release from CYP46A1; conditions: for mechanism of binding to substrate-free CYP46A1: stopped-flow experiments; for spectral binding at 15–30 μM, stopped-flow: substrate-free CYP46A1, 15–30 μM compound
[7] = Cholesterol binding to HPCD; conditions: read-out: Kd of cholesterol for HPCD; 50 mM KPi buffer (pH 7.2) containing 100 mM NaCl at 24 °C
[8] = biological target: T1, purified recombinant CYP46A1; conditions: previous study; cited from earlier work
[9] = within 1 h of an intraperitoneal administration; cited from earlier work
protein (albumin) = conditions: cited from earlier work
CYP46A1 in the brain = conditions: 0.32 (mg/da)/kg body dose, mice; cited from earlier work

In the case of `O=C1Nc2cc(O)c(Cl)cc2C(C#CC2CC2)(C(F)(F)F)O1` (racemic) [rac-2], the “fit of spectral titration curve, cholesterol-bound CYP46A1” value [1] is reported as “sigmoidal”, the “spectral response fit, cholesterol-bound CYP46A1” value [1] is reported as “S” and the “spectral response type, cholesterol-bound CYP46A1” value [1] is reported as “reverse type 1-like”. For the same molecule, the “fit of spectral titration curve, substrate-free CYP46A1” value (substrate-free CYP46A1) was “hyperbolic”, the “spectral response type, substrate-free CYP46A1” value (substrate-free CYP46A1; 18 °C) was “type 2” and the “shape of concentration dependence curve of CYP46A1 activity” value (shortened to “shape”) [2] was “bell-shaped”. For the same molecule, the “effect of co-incubation with L-Glu on CYP46A1 activation” value (from here on “effect of co-incubation with L-Glu”) [2] was “synergistically activated”, the “CYP46A1 inhibition at the 60–100 μM concentrations” value [2] was “did not inhibit” and the “allosteric site of binding” value [3] was “both EFV- and Glu-binding sites”.

For `O=C1Nc2c(O)cc(Cl)cc2[C@@](C#CC2CC2)(C(F)(F)F)O1` [(S)-1, (S)-8-hydroxyEFV], the plasma level [4] is listed as 315 to 2160 ng/mL, the “fit of spectral titration curve, cholesterol-bound CYP46A1” value [1] is listed as “sigmoidal” and the “spectral response fit, cholesterol-bound CYP46A1” value [1] is listed as “S”. For the same molecule, the “spectral response type, cholesterol-bound CYP46A1” value [1] was “reverse type 1-like”, the cerebrospinal fluid level [5] was 3.1 to 5.3 ng/mL and the “fit of spectral titration curve, substrate-free CYP46A1” value (substrate-free CYP46A1) was “hyperbolic”. For the same molecule, the “spectral response type, substrate-free CYP46A1” value (substrate-free CYP46A1; 18 °C) was “type 2”, the “cell damage or death in cell culture” value [6] was “induce cell damage or death” and the “shape” value [2] was “bell-shaped”. The “effect of co-incubation with L-Glu” value [2] was “synergistically activated”, the “CYP46A1 inhibition at the 60–100 μM concentrations” value [2] was “did not inhibit” and the “allosteric site of binding” value [3] was “both EFV- and Glu-binding sites”.

In the case of `CC1Nc2ccc(Cl)cc2C(C#CC2CC2)(C(F)(F)F)O1` (racemic) [rac-7], the “spectral response type, cholesterol-bound CYP46A1” value [1] is reported as “did not seem to elicit a quantifiable spectral response; also recorded: no spectral response”, the “fit of spectral titration curve, substrate-free CYP46A1” value (substrate-free CYP46A1) is reported as “hyperbolic” and the “spectral response type, substrate-free CYP46A1” value (substrate-free CYP46A1; 18 °C) is reported as “type 1”. The “CYP46A1 activation compared with that with (S)-EFV” value [2] was “lower”, the “shape” value [2] was “bell-shaped” and the “effect of co-incubation with (S)-EFV on CYP46A1 activation” value (“effect of co-incubation with (S)-EFV” below) [2] was “synergistic CYP46A1 activation”. For the same molecule, the “maximal activation in the presence of L-Glu (fold)” value [2] was “abolished”, the “effect of co-incubation with L-Glu” value [2] was “abolished” and the “P450 activation with replacements within the Glu-binding site” value [3] was “largely reduced or abolished”. For the same molecule, the “P450 activation with replacements within the EFV-binding site” value [3] was “not significantly affected” and the “allosteric site of binding” value [3] was “mainly with the allosteric site for Glu”.

For `O=C1Nc2c(O)cc(Cl)cc2C(C#CC2CC2)(C(F)(F)F)O1` (racemic) [rac-1], the “fit of spectral titration curve, cholesterol-bound CYP46A1” value [1] was “sigmoidal”, the “spectral response type, cholesterol-bound CYP46A1” value [1] was “reverse type 1-like” and the “fit of spectral titration curve, substrate-free CYP46A1” value (substrate-free CYP46A1) was “hyperbolic”. For the same molecule, the “spectral response type, substrate-free CYP46A1” value (substrate-free CYP46A1; 18 °C) was “type 2”, the “shape” value [2] was “bell-shaped” and the “CYP46A1 inhibition at the 60–100 μM concentrations” value [2] was “did not inhibit”.

In the case of `CC(C)CCC[C@@H](C)[C@H]1CC[C@H]2[C@@H]3CC=C4C[C@@H](O)CC[C@]4(C)[C@H]3CC[C@]12C` [cholesterol], the “calculated kon higher than that for rac-3” value (CYP46A1) is reported as 1.9 fold, the “calculated kon lower than that for (S)-EFV” value (CYP46A1) is reported as 1.7 fold and the koff (CYP46A1; read-out: experimental koff (s^–1)) is reported as 0.012 ± 0.002 s⁻¹. For the same molecule, the Kd (substrate-free CYP46A1; Kd for substrate-free CYP46A1 (M), cholesterol, from an apparent Kd of 80 nM [20] after the correction for HPCD binding) was 9e-09 M and the Kd [7] was 540 µM.

In the case of `O=C1Nc2cc(O)c(Cl)cc2[C@@](C#CC2CC2)(C(F)(F)F)O1` [7-hydroxyEFV, (S)-7-hydroxyEFV], the plasma level [4] is listed as 8.8 to 225 ng/mL and the cerebrospinal fluid level [5] is listed as 0.63 ng/mL.

With `O=C1CC(C#CC2CC2)(C(F)(F)F)c2cc(Cl)ccc2N1` (racemic) [rac-8] the “fit of spectral titration curve, cholesterol-bound CYP46A1” value [1] was “sigmoidal”, the “spectral response fit, cholesterol-bound CYP46A1” value [1] was “S” and the “spectral response type, cholesterol-bound CYP46A1” value [1] was “reverse type 1-like”. The “fit of spectral titration curve, substrate-free CYP46A1” value (substrate-free CYP46A1) was “hyperbolic”, the “spectral response type, substrate-free CYP46A1” value (substrate-free CYP46A1; 18 °C) was “type 1” and the “CYP46A1 activation compared with that with (S)-EFV” value [2] was “similar”. For the same molecule, the “shape” value [2] was “bell-shaped”, the “effect of co-incubation with L-Glu” value [2] was “synergistically activated” and the “allosteric site of binding” value [3] was “preferential EFV-site binding”.

For `O=C1Nc2c(O)cc(Cl)cc2C(C#CC2(O)CC2)(C(F)(F)F)O1` (racemic) [rac-3], the “fit of spectral titration curve, cholesterol-bound CYP46A1” value [1] was “hyperbolic”, the “spectral response type, cholesterol-bound CYP46A1” value [1] was “reverse type 1-like” and the “kon lower than that of (S)-EFV” value (CYP46A1) was 3 fold. For the same molecule, the “mechanism of binding to substrate-free CYP46A1” value (CYP46A1) was “conformational-selection”, the “rates of binding (kobserved) lower than those for (S)-EFV” value (CYP46A1; substrate-free CYP46A1) was at least 7 fold and the “spectral binding at 15–30 μM, stopped-flow” value (CYP46A1) was “essentially no spectral binding”. For the same molecule, the “fit of spectral titration curve, substrate-free CYP46A1” value (substrate-free CYP46A1) was “hyperbolic”, the “spectral response type, substrate-free CYP46A1” value (substrate-free CYP46A1; 18 °C) was “type 2” and the “difference in the apparent spectral Kd versus (S)-EFV” value (substrate-free CYP46A1; substrate-free CYP46A1) was 2 fold. The “shape” value [2] was “essentially hyperbolic”, the “effect of co-incubation with (S)-EFV” value [2] was “synergistic CYP46A1 activation” and the “effect of co-incubation with L-Glu” value [2] was “lower”. The “P450 activation with replacements within the Glu-binding site” value [3] was “largely reduced or abolished”, the “P450 activation with replacements within the EFV-binding site” value [3] was “not significantly affected” and the “allosteric site of binding” value [3] was “mainly with the allosteric site for Glu”.

For `CCCC#CC1(C(F)(F)F)OC(=O)Nc2ccc(Cl)cc21` (racemic) [rac-9], the “fit of spectral titration curve, cholesterol-bound CYP46A1” value [1] was “sigmoidal”, the “spectral response fit, cholesterol-bound CYP46A1” value [1] was “S” and the “spectral response type, cholesterol-bound CYP46A1” value [1] was “reverse type 1-like”. For the same molecule, the “fit of spectral titration curve, substrate-free CYP46A1” value (substrate-free CYP46A1) was “hyperbolic”, the “spectral response type, substrate-free CYP46A1” value (substrate-free CYP46A1; 18 °C) was “type 1” and the “CYP46A1 activation compared with that with (S)-EFV” value [2] was “lower”. For the same molecule, the “shape” value [2] was “bell-shaped”, the “effect of co-incubation with L-Glu” value [2] was “synergistically activated” and the “allosteric site of binding” value [3] was “preferential EFV-site binding”.

For `O=C1Cc2ccc(Cl)cc2C(C#CC2CC2)(C(F)(F)F)O1` (racemic) [rac-5], the “spectral response type, cholesterol-bound CYP46A1” value [1] was “did not seem to elicit a quantifiable spectral response; also recorded: no spectral response”, the “fit of spectral titration curve, substrate-free CYP46A1” value (substrate-free CYP46A1) was “sigmoidal” and the “spectral response fit, substrate-free CYP46A1” value (substrate-free CYP46A1; 18 °C) was “S”. For the same molecule, the “spectral response type, substrate-free CYP46A1” value (substrate-free CYP46A1; 18 °C) was “type 1”, the “CYP46A1 activation compared with that with (S)-EFV” value [2] was “lower” and the “CYP46A1 inhibition at the concentrations tested” value [2] was “did not inhibit”. For the same molecule, the “shape” value [2] was “sigmoidal-like”, the “effect of co-incubation with L-Glu” value [2] was “synergistically activated” and the “allosteric site of binding” value [3] was “both EFV- and Glu-binding sites”.

In the case of `FC(F)(F)[C@@]1(C#CC2CC2)OCNc2ccc(Cl)cc21` [(S)-6], the “spectral response type, cholesterol-bound CYP46A1” value [1] is reported as “did not seem to elicit a quantifiable spectral response; also recorded: no spectral response”, the “fit of spectral titration curve, substrate-free CYP46A1” value (substrate-free CYP46A1) is reported as “hyperbolic” and the “spectral response type, substrate-free CYP46A1” value (substrate-free CYP46A1; 18 °C) is reported as “type 1”. For the same molecule, the “CYP46A1 activation compared with that with (S)-EFV” value [2] was “lower”, the “CYP46A1 inhibition at the concentrations tested” value [2] was “did not inhibit” and the “shape” value [2] was “bell-shaped”. The “effect of co-incubation with (S)-EFV” value [2] was “synergistic CYP46A1 activation”, the “maximal activation in the presence of L-Glu (fold)” value [2] was “abolished” and the “effect of co-incubation with L-Glu” value [2] was “abolished”. For the same molecule, the “P450 activation with replacements within the Glu-binding site” value [3] was “largely reduced or abolished”, the “P450 activation with replacements within the EFV-binding site” value [3] was “not significantly affected” and the “allosteric site of binding” value [3] was “mainly with the allosteric site for Glu”.

For `O=C1Nc2ccc(Cl)cc2[C@@](C#CC2CC2)(C(F)(F)F)O1` [(S)-EFV, (S)-6-chloro-4-(cyclopropylethynyl)-4-(trifluoromethyl)-1,4-dihydro-2H-benzo[d][1,3]oxazin-2-one, reference compound], the “CYP46A1 inhibition at 100 μM” value [8] is given as “almost completely inhibited”, the plasma level [4] is given as 2170 to 3350 ng/mL and the “fit of spectral titration curve, cholesterol-bound CYP46A1” value [1] is given as “sigmoidal”. For the same molecule, the “spectral response fit, cholesterol-bound CYP46A1” value [1] was “S”, the “spectral response type, cholesterol-bound CYP46A1” value [1] was “reverse type 1” and the cerebrospinal fluid level [5] was 13.9 to 19.5 ng/mL. The “mechanism of binding to substrate-free CYP46A1” value (CYP46A1) was “conformational-selection”, the “spectral binding at 15–30 μM, stopped-flow” value (CYP46A1) was “measurable” and the “brain levels exceeding those in the plasma” value [9] was 4.6 times. The “protein (albumin)-bound in the blood” value (protein (albumin)) was at least 99.6%, the “fit of spectral titration curve, substrate-free CYP46A1” value (substrate-free CYP46A1) was “hyperbolic” and the “spectral response type, substrate-free CYP46A1” value (substrate-free CYP46A1; 18 °C) was “type 2”. The “effect on CYP46A1 in the brain” value (CYP46A1 in the brain) was “inhibited”, the “shape” value [2] was “bell-shaped” and the “CYP46A1 inhibition at the 60–100 μM concentrations” value [2] was “inhibitory”.
